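A five-concentration, 48-hour dose response in 96-well plates underlies each endpoint, interpolated linearly between surrounding concentrations. The concentration for 50% growth inhibition is given as GI50. Definition used: TGI = concentration required for complete inhibition of growth.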
Legend:
Test in all cases: DTP human tumour cell line panel, 48 h; in the data active means GI50 below about 0.43 µM; inactive means the rest
[1] = system: 786-0 renal
[2] = system: A498 renal
[3] = system: A549 NSCLC
[4] = system: ACHN renal
[5] = system: BT-549 breast
[6] = system: CAKI-1 renal
[7] = system: CCRF-CEM leukemia
[8] = system: COLO 205 colon
[9] = system: DU-145 prostate
[10] = system: EKVX NSCLC
[11] = system: HCT-116 colon
[12] = system: HCT-15 colon
[13] = system: HL-60(TB) leukemia
[14] = system: HOP-62 NSCLC
[15] = system: HOP-92 NSCLC
[16] = system: HS 578T breast
[17] = system: HT29 colon
[18] = system: IGROV1 ovarian
[19] = system: KM12 colon
[20] = system: LOX IMVI melanoma
[21] = system: M14 melanoma
[22] = system: MALME-3M melanoma
[23] = system: MCF7 breast
[24] = system: MDA-MB-231 breast
[25] = system: MDA-MB-435
[26] = system: MDA-N
[27] = system: MOLT-4 leukemia
[28] = system: NCI-H226 lung
[29] = system: NCI-H23 lung
[30] = system: NCI-H460 lung
[31] = system: NCI/ADR-RES ovarian
[32] = system: OVCAR-3 ovarian
[33] = system: OVCAR-5 ovarian
[34] = system: OVCAR-8 ovarian
[35] = system: PC-3 prostate
[36] = system: RPMI-8226 leukemia
[37] = system: SF-268 CNS
[38] = system: SF-295 CNS
[39] = system: SF-539 CNS
[40] = system: SK-MEL-28 melanoma
[41] = system: SK-MEL-5 melanoma
[42] = system: SK-OV-3 ovarian
[43] = system: SN12C renal
[44] = system: SNB-19 CNS
[45] = system: SNB-75 CNS
[46] = system: SR leukemia
[47] = system: SW-620 colon
[48] = system: T-47D breast
[49] = system: TK-10 renal
[50] = system: U251 CNS
[51] = system: UACC-257 melanoma
[52] = system: UO-31 renal
[53] = system: DLD-1 colon
[54] = system: DMS 273 small cell lung
[55] = system: HCC-2998 colon
[56] = system: HOP-18 NSCLC
[57] = system: K-562 leukemia
[58] = system: KM20L2 colon
[59] = system: LXFL 529 NSCLC
[60] = system: M19-MEL melanoma
[61] = system: NCI-H522 lung
[62] = system: OVCAR-4 ovarian
[63] = system: RXF 393 renal
[64] = system: SK-MEL-2 melanoma
[65] = system: UACC-62 melanoma
[66] = system: XF 498 CNS
[67] = system: SNB-78 CNS
[68] = system: DMS 114 small cell lung

COc1cc(-c2c3c(cc4c2OCO4)[C@@H](Nc2ccc4c(c2)Cc2cc(N[C@@H]5c6cc7c(cc6C(c6cc(OC)c(O)c(OC)c6)[C@H]6C(=O)OC[C@H]56)OCO7)ccc2-4)[C@H]2COC(=O)[C@@H]2C3)cc(OC)c1O (stereo partly specified)
70 µM: TGI [40]
28.7 µM: TGI [8]
60.4 µM: TGI [22]
47.2 µM: TGI [17]
19 µM: TGI [39]
88.9 µM: TGI [6]
41.1 µM: TGI [42]
> 100 µM: TGI [3] | TGI [4] | TGI [7] | TGI [9] | TGI [10] | TGI [12] | TGI [13] | TGI [16] | TGI [19] | TGI [20] | TGI [23] | TGI [24] | TGI [27] | TGI [28] | TGI [29] | TGI [30] | TGI [32] | TGI [34] | TGI [36] | TGI [37] | TGI [43] | TGI [44] | TGI [45] | TGI [47] | TGI [48] | TGI [49] | TGI [51] | TGI [52]
42.2 µM: TGI [31]
89 µM: TGI [50]
42.3 µM: TGI [38]
33.1 µM: TGI [25]
94.2 µM: TGI [2]
47 µM: TGI [35]
46.2 µM: TGI [41]
57.5 µM: TGI [14]
21.3 µM: TGI [18]
50.3 µM: TGI [21]
57 µM: TGI [11]
94.5 µM: TGI [5]
63.7 µM: TGI [1]
97.3 µM: TGI [15]
34.3 µM: TGI [26]
88.3 µM: TGI [33]
56.5 µM: TGI [46]

O=C(Nc1ccc(S(=O)(=O)N[C@@H](C(=O)O)c2ccccc2)cc1)c1ccc(F)cc1
> 100 µM: TGI [1] | TGI [2] | TGI [3] | TGI [4] | TGI [6] | TGI [7] | TGI [8] | TGI [53] | TGI [54] | TGI [10] | TGI [55] | TGI [12] | TGI [56] | TGI [15] | TGI [17] | TGI [18] | TGI [57] | TGI [19] | TGI [58] | TGI [20] | TGI [59] | TGI [21] | TGI [60] | TGI [22] | TGI [27] | TGI [29] | TGI [30] | TGI [61] | TGI [32] | TGI [62] | TGI [33] | TGI [34] | TGI [36] | TGI [63] | TGI [37] | TGI [38] | TGI [39] | TGI [64] | TGI [40] | TGI [41] | TGI [42] | TGI [43] | TGI [44] | TGI [45] | TGI [47] | TGI [49] | TGI [50] | TGI [51] | TGI [65] | TGI [52] | TGI [66]

COc1cc2c3c(n(C)c(=O)c2cc1OC)-c1cc2c(cc1/C3=C/CCCCBr)OCO2
7.44 µM: TGI [7]
64.5 µM: TGI [36]
96.1 µM: TGI [45]
inactive: GI50 [9] 4.46 µM | GI50 [11] 9.47 µM | GI50 [14] 26.6 µM | GI50 [25] > 100 µM | GI50 [32] > 100 µM | GI50 [39] 7.07 µM | GI50 [43] > 100 µM | GI50 [65] > 100 µM
> 100 µM: TGI [1] | TGI [3] | TGI [4] | TGI [5] | TGI [6] | TGI [8] | TGI [9] | TGI [10] | TGI [11] | TGI [12] | TGI [13] | TGI [14] | TGI [15] | TGI [16] | TGI [17] | TGI [18] | TGI [57] | TGI [19] | TGI [20] | TGI [21] | TGI [22] | TGI [23] | TGI [24] | TGI [25] | TGI [26] | TGI [27] | TGI [29] | TGI [30] | TGI [61] | TGI [31] | TGI [32] | TGI [33] | TGI [34] | TGI [35] | TGI [63] | TGI [37] | TGI [38] | TGI [39] | TGI [64] | TGI [40] | TGI [41] | TGI [42] | TGI [43] | TGI [44] | TGI [47] | TGI [48] | TGI [49] | TGI [50] | TGI [51] | TGI [65] | TGI [52]
15.6 µM: TGI [46]
87.4 µM: TGI [2]

NC(=O)NC(=NCc1ccccc1)NCc1ccccc1
> 100 µM: TGI [1] | TGI [3] | TGI [4] | TGI [6] | TGI [8] | TGI [53] | TGI [54] | TGI [10] | TGI [55] | TGI [11] | TGI [12] | TGI [14] | TGI [15] | TGI [17] | TGI [18] | TGI [19] | TGI [58] | TGI [20] | TGI [59] | TGI [21] | TGI [29] | TGI [30] | TGI [61] | TGI [32] | TGI [62] | TGI [34] | TGI [37] | TGI [38] | TGI [39] | TGI [64] | TGI [40] | TGI [41] | TGI [42] | TGI [43] | TGI [44] | TGI [67] | TGI [47] | TGI [49] | TGI [50] | TGI [51] | TGI [65] | TGI [52]

O=C1CCn2c([nH]c3cccc4cccc2c43)=N1
> 100 µM: TGI [1] | TGI [3] | TGI [4] | TGI [7] | TGI [8] | TGI [68] | TGI [54] | TGI [10] | TGI [55] | TGI [11] | TGI [12] | TGI [13] | TGI [14] | TGI [17] | TGI [18] | TGI [57] | TGI [58] | TGI [20] | TGI [59] | TGI [21] | TGI [60] | TGI [27] | TGI [28] | TGI [29] | TGI [30] | TGI [62] | TGI [33] | TGI [34] | TGI [36] | TGI [63] | TGI [37] | TGI [39] | TGI [40] | TGI [41] | TGI [42] | TGI [43] | TGI [44] | TGI [45] | TGI [67] | TGI [46] | TGI [47] | TGI [49] | TGI [50] | TGI [51] | TGI [65] | TGI [52] | TGI [66]

O=c1c2cc3c(=O)n(CCc4ccccc4CO)c(=O)c3cc2c(=O)n1CCc1ccccc1CO
> 100 µM: TGI [2] | TGI [3] | TGI [4] | TGI [7] | TGI [53] | TGI [68] | TGI [54] | TGI [11] | TGI [12] | TGI [13] | TGI [17] | TGI [18] | TGI [57] | TGI [19] | TGI [20] | TGI [59] | TGI [60] | TGI [22] | TGI [27] | TGI [28] | TGI [29] | TGI [30] | TGI [61] | TGI [32] | TGI [62] | TGI [34] | TGI [63] | TGI [37] | TGI [38] | TGI [39] | TGI [64] | TGI [40] | TGI [41] | TGI [42] | TGI [43] | TGI [44] | TGI [45] | TGI [67] | TGI [47] | TGI [49] | TGI [50] | TGI [51] | TGI [65] | TGI [52] | TGI [66]

O=C1NC(=S)S/C1=C/c1ccco1
64.3 µM: TGI [2]
> 100 µM: TGI [3] | TGI [4] | TGI [6] | TGI [8] | TGI [53] | TGI [68] | TGI [54] | TGI [10] | TGI [55] | TGI [11] | TGI [12] | TGI [15] | TGI [17] | TGI [18] | TGI [20] | TGI [59] | TGI [21] | TGI [28] | TGI [29] | TGI [30] | TGI [32] | TGI [62] | TGI [33] | TGI [34] | TGI [63] | TGI [37] | TGI [38] | TGI [39] | TGI [40] | TGI [41] | TGI [42] | TGI [43] | TGI [44] | TGI [45] | TGI [47] | TGI [49] | TGI [51] | TGI [65] | TGI [52]
